Molecules are shown by their SMILES. Structures can show the parent of a compound that is named as a salt.

Among the data in patent US20080090834A1, “SELECTIVE AZOLE PDE10A INHIBITOR COMPOUNDS” (Pfizer Inc, priority 2006, published 2008) are IC50 values, retold here.

For this assay, the target named is T1, cloned rat PDE10A full-length enzyme (Rattus norvegicus, UniProt Q9QYJ6).
T1 construct: cloned rat PDE10A full-length enzyme grown in transfected Sf9 insect cells; made in house; host or cells: Sf9 insect cells
T1 sequence (Q9QYJ6 1-794): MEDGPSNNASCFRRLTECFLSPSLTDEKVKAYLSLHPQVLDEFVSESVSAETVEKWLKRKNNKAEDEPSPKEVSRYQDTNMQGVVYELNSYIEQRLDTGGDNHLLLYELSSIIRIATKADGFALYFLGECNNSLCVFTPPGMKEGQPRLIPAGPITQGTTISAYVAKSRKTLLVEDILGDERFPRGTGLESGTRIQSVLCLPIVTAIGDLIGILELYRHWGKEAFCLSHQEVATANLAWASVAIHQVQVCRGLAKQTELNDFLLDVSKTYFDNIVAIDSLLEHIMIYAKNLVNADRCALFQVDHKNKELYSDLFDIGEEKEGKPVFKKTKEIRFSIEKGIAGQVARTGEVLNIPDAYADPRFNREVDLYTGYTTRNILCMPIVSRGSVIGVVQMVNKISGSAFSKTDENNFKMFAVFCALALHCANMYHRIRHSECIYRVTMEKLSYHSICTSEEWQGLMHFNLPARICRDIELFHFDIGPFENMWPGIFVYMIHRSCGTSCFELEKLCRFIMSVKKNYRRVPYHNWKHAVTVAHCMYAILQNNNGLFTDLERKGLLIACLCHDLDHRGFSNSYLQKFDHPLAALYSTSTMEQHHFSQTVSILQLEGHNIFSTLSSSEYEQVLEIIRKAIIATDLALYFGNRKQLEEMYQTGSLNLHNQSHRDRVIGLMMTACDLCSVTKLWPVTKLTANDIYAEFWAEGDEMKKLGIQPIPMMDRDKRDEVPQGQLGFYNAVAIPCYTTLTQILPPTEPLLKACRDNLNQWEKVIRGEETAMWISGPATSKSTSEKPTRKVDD
Kind of assay: PDE10 enzyme inhibition, [3H]cAMP scintillation proximity assay. It is filed as biochemical. The note with it: rat PDE10A from Sf9 cells, 20 nM [3H]cAMP, SPA beads, 20 minute incubation at room temperature. As for the experimental part: Compounds of the present invention were evaluated for ability to inhibit PDE10 enzyme with the following Assay procedure
The enzyme used in the procedure was cloned rat PDE10A full-length enzyme grown in transfected Sf9 insect cells. Cloned enzyme was extracted from homogenized cell pellets and stored frozen in homogenizing buffer until use. Compounds were initially dissolved in 100% DMSO and diluted out in 20 percent DMSO/water solution. Final concentration of DMSO in the assay was 2 percent as compounds were tested in triplicate in 96 well plates. Compound solution was placed in well, then tritiated cyclic AMP (New England Nuclear NET275) in assay buffer was added at 20 nM concentration. Then PDE10 enzyme in assay buffer of 50 mM Tris, 8.3 mM MgCl2, pH 7.5 at room temperature was added for a final assay volume of 100 ul. Concentration of enzyme was added such that less than 10 percent of [3H]cAMP at 20 nM was converted to detectable end product, [3H]AMP bound to SPA (Scintillation Proximity Assay) beads. Phosphodiesterase scintillation proximity yttrium silicate beads from Amersham Biosciences (RPNQ0150) were added (50 ul at 20 mg/ml) after a 20 minute incubation at room temperature. Zinc sulphate as a component of the beads stops the phosphodiesterase reaction.
Non-specific binding to SPA beads was determined by addition of 1 uM papaverine. Total conversion by enzyme without inhibitor of [3H]cAMP to [3H]AMP, as detected by scintillation of [3H]AMP bound to yttrium silicate beads, was determined in the presence of vehicle-only.
Background: SPA uses beads or plates that emit light when radiolabelled molecules are held near them.
Usually IC50 stands for the concentration needed to halve the response being measured. Read a low IC50 as inhibition by little substance. Consider `Cc1ccc(-n2cc(-c3ccccn3)nc2-c2ccc(-n3ncc4ccncc43)cc2)cn1` [Example 56, 1-(4-(1-(6-methylpyridin-3-yl)-4-(pyridin-2-yl)-1H-imidazol-2-yl)phenyl)-1H-pyrazolo[3,4-]pyridine], for which the IC50 is 6.44 nM.

Turning to `Cc1ccc(-n2cc(-c3ccccn3)nc2-c2ccc(-n3c(C)nc4cccnc43)cc2)cn1` [Example 57, 2-methyl-3-(4-(1-(6-methylpyridin-3-yl)-4-(pyridin-2-yl)-1H-imidazol-2-yl)phenyl)-3H-imidazo[4,5-b]pyridine], 1.89 nM corresponded to half-maximal inhibition (IC50). This IC50 lies about 3.4-fold lower than the previous one.

In turn, `Cc1ccc(-n2cc(-c3ccccn3)nc2-c2ccc(-n3c(C(F)(F)F)nc4cccnc43)cc2)cn1` [Example 58, 2(trifluoromethyl)-3(4-(1-(6-methylpyridin-3-yl)-4-(pyridin-2-yl)-1H-imidazol-2-yl)phenyl)-3H-imidazo[4,5-b]pyridine] displayed an IC50 of 1.06 nM.

On to `Cc1ccc(-n2cc(-c3ccccn3)nc2-c2ccc(-n3c(C(C)C)nc4cccnc43)cc2)cn1` [Example 59, 2-isopropyl-3-(4-(1-(6-methylpyridin-3-yl)-4-(pyridin-2-yl)-1H-imidazol-2-yl)phenyl)-3H-imidazo[4,5-b]pyridine], for which the IC50 came to 0.831 nM. The IC50 values of the last two compounds are within 1.5-fold of each other.

The compound `COc1nc2cccnc2n1-c1ccc(-c2nc(-c3ccccn3)cn2-c2ccc(C)nc2)cc1` [Example 60, 2-methoxy-3-(4-(1-(6-methylpyridin-3-yl)-4-(pyridin-2-yl)-1H-imidazol-2-yl)phenyl)-3H-imidazo[4,5-b]pyridine] returned an IC50 of 0.388 nM.

`Cc1ccc(-n2cc(-c3ncc(C)s3)nc2-c2ccc(-n3ccc4cccnc43)cc2)cn1` [Example 61, 1-(4-(1-(6-methylpyridin-3-yl)-4(5-methylthiazol-2-yl)-1H-imidazol-2-yl)phenyl)-1H-pyrrolo[2,3-b]pyridine]: 54.8 nM corresponded to half-maximal inhibition (IC50).

Compound `Clc1ccc(-c2cn(-c3cncnc3)c(-c3ccc(-n4ccc5cccnc54)cc3)n2)s1` [Example 62, 1-(4-(4-(5-chlorothiophen-2-yl)-1-(pyrimidin-5-yl)-1H-imidazol-2-yl)phenyl)-1H-pyrrolo[2,3-b]pyridine] had an IC50 of 65.1 nM.

In the case of `Cc1csc(-c2cn(-c3cncnc3)c(-c3ccc(-n4ccc5cccnc54)cc3)n2)n1` [Example 63], the midpoint of inhibition, the IC50, lay at 13.8 nM.

Take `Cc1ccc(-n2cc(-c3ccc(F)s3)nc2-c2ccc(-n3ccc4cccnc43)cc2)cn1` [Example 64, 1-(4-(4-(5-fluorothiophen-2-yl)-1-(6-methylpyridin-3-yl)-1H-imidazol-2-yl)phenyl)-1H-pyrrolo[2,3-b]pyridine]: the IC50 is 6.59 nM. This IC50 lies about 2.1-fold lower than the previous one.

On to `Cc1cc(-n2cc(-c3nccn3C)nc2-c2ccc(-n3ccc4cccnc43)cc2)ccn1` [Example 66, 1-(4-(4-(1-methyl-1H-imidazol-2-yl)-1-(2-methylpyridin-4-yl)-1H-imidazol-2-yl)phenyl)-1H-pyrrolo[2,3-b]pyridine], for which the IC50 was determined as 112 nM. This IC50 lies about 17-fold higher than the previous one.

For the compound `Cn1ccnc1-c1cn(-c2cncnc2)c(-c2ccc(-n3ccc4cccnc43)cc2)n1` [Example 67], the IC50 worked out at 274 nM.

In the case of `Cc1cc(-n2cc(-c3cccnc3)nc2-c2ccc(-n3ccc4cccnc43)cc2)ccn1` [Example 68, 1-(4-(1-(2-methylpyridin-4-yl)-4-(pyridin-3-yl)-1H-imidazol-2-yl)phenyl)-1H-pyrrolo[2,3-b]pyridine bis-TFA salt], half-maximal inhibition (IC50) was put at 5.1 nM.

As to `Cc1cc(-n2cc(-c3ccncc3)nc2-c2ccc(-n3ccc4cccnc43)cc2)ccn1` [Example 69, 1-(4-(1-(2-methylpyridin-4-yl-4-(pyridin-4-yl)-1H-imidazol-2-yl)phenyl)-1H-pyrrolo-[2,3-b]pyridinebis-TFA salt], the half-maximal inhibitory concentration (IC50) worked out at 89.7 nM. Against the preceding compound, the IC50 is about 18-fold higher.

For `Clc1ccc(-c2ccc(-c3nc(-c4ccccn4)cn3-c3cncnc3)cc2)cc1Cl` [Example 70, 5-(2-(4-(3,4-dichloropheny)phenyl)-4-(pyridin-2-yl)-1H-imidazol-1-yl)pyrimidine], half-maximal inhibition (IC50) required 216 nM.

In the case of `Clc1ccc(-c2ccc(-c3nc(-c4ccccn4)cn3-c3cncnc3)cc2)cc1` [Example 71, 5-(2-(4-(4-chlorophenyl)phenyl)-4-(pyridin-2-yl)-1H-imidazol-1-yl)pyrimidine], the 50% inhibitory concentration (IC50) worked out at 67.6 nM. This IC50 lies about 3.2-fold lower than the previous one.

Compound `c1ccc(-c2cn(-c3cncnc3)c(-c3ccc(-c4cccnc4)cc3)n2)nc1` [Example 72] came in with an IC50 of 160 nM.

In turn, `c1ccc(-c2cn(-c3cncnc3)c(-c3ccc(-c4ccncc4)cc3)n2)nc1` [Example 73] came in with an IC50 of 74.3 nM. Against the preceding compound, the IC50 is about 2.2-fold lower.

In turn, `Cc1ccc(-n2cc(-c3ccccn3)nc2-c2ccc(-n3ccc4cncnc43)cc2)cn1` [Example 74, 7-(4-(1-(6-methylpyridin-3-yl)-4-(pyridin-2-yl)-1H-imidazol-2-yl)phenyl)-7H-pyrrolo[2,3-d]pyrimidine] yielded an IC50 of 2.27 nM. Compared with the last compound, the IC50 is about 33-fold lower.

`Cc1ccc(-n2cc(-c3ccccn3)nc2-c2ccc(-n3cc(C)c4nccnc43)cc2)cn1` [Example 75] displayed a half-maximal inhibitory concentration (IC50) of 2.41 nM.

With `c1cncc(-n2cc(-c3nc4ccccc4s3)nc2-c2ccc(-n3ccc4cccnc43)cc2)c1` [Example 76, 1-(4-(4-benzo[d]thiazol-2-yl)-1-(pyridin-3-yl)-1H-b]pyridine], the IC50 is 544 nM.

`COc1ccnc2c(-c3ccc(-c4nc(-c5ccccn5)cn4-c4cccnc4)cc3)cc(C)cc12` [Example 77] registered an IC50 of 156 nM.

Compound `c1ccc(-c2cn(-c3cccnc3)c(-c3ccc(-c4nccc5cccnc45)cc3)n2)nc1` [Example 78] yielded a half-inhibitory concentration (IC50) of 3.26 nM.

`c1ccc(-c2cn(-c3cccnc3)c(-c3ccc(-c4cccc5cccnc45)cc3)n2)nc1` [Example 79, 8-(4-(4-(pyridin-2-yl)-1-(pyridin-3-yl)-1H-imidazol-2-yl)phenyl)quinoline] had an IC50 of 3.94 nM.

Compound `COc1cc(-c2ccc(-c3nc(-c4ccccn4)cn3-c3cccnc3)cc2)c2ncccc2c1` [Example 80, 6-methoxy-8-(4-(4-(pyridin-2-yl)-1-(pyridin-3-yl)-1H-imidazol-2-yl)phenyl)quinoline] displayed an IC50 of 0.794 nM.

In turn, `Cc1ccc(-n2cc(-c3nccs3)nc2-c2ccc(-n3c(C(F)F)nc4cccnc43)cc2)cn1` [Example 84] registered an IC50 of 0.73 nM. This IC50 and that of the compound before are within 1.5-fold of each other.

Compound `Cc1nc(-c2cn(-c3cncnc3)c(-c3ccc(-n4ccc5cccnc54)cc3)n2)sc1C` [Example 85] yielded an IC50 of 74.2 nM.

Compound `Cc1ccc(-n2cc(-c3nccs3)nc2-c2ccc(-n3c(C(F)(F)F)nc4cccnc43)cc2)cn1` [Example 87] gave an IC50 of less than 1000 nM.

`COc1nc2cccnc2n1-c1ccc(-c2nc(-c3nc(C)cs3)cn2-c2ccc(C)nc2)cc1` [Example 90, 2-methoxy-3-(4-(1-(6-methylpyridin-3-yl)-4-(4-methylthiazol-2-yl)-1H-imidazol-2-yl)phenyl)-3H-imidazol[4,5-b]pyridine] displayed an IC50 of 0.287 nM.

`CCCOc1nc2cccnc2n1-c1ccc(-c2nc(-c3ccccn3)cn2-c2ccc(C)nc2)cc1` [Example 91, 3-(4-(1-(6-methylpyridin-3-yl)-4-(pyridin-2-yl)-1H-imidazol-2-yl)phenyl)-2-propoxy-3H-imidazo[4,5-b]pyridine] gave an IC50 of 0.741 nM.

`COc1nc2cccnc2n1-c1ccc(-c2nc(-c3cccs3)cn2-c2ccc(C)nc2)cc1` [Example 93, 2-methoxy-3-(4-(1-(6-methylpyridin-3-yl)-4-(thiophen-2-yl)-1H-imidazol-2-yl)phenyl)-3H-imidazo[4,5-b]pyridine] gave an IC50 of less than 0.424 nM.

The compound `CCOc1nc2cccnc2n1-c1ccc(-c2nc(-c3ccccn3)cn2-c2ccc(C)nc2)cc1` [Example 94, 2-ethoxy-3-(4-(1-(6-methylpyridin-3-yl)-4-(pyridin-2-yl)-1H-imidazol-2-yl)phenyl)-3H-imidazol[4,5-b]pyridine] registered a half-inhibitory concentration (IC50) of 1.02 nM.

For the compound `Cc1ccc(-n2cc(-c3ccccn3)nc2-c2ccc(-n3c(=O)[nH]c4cccnc43)cc2)cn1` [Example 95], inhibition was half-maximal at 3.91 nM (IC50). Against the preceding compound, the IC50 is about 3.8-fold higher.
